Results published in article PMC12735921, “Evaluation of Antiproliferative Activity and Molecular Modeling Studies of Some Novel Benzimidazolone-Bridged Hybrid Compounds” (Pharmaceuticals, 2025).
Values joined by “and” are separate entries in the source; they are usually repeats but may differ in a detail not shown here. Equal entries are not always repeated.

Experiments:
Type in all cases: cell-based, human
[1] = tested on: A549 cells; test: MTT cell viability assay, A549; settings: for IC50: Homo sapiens, A549, MTT, 48 h, mean ± SD, n = 3; for A549 Selectivity Index (SI): SI = IC50 (HEK 293)/IC50 (A549)
Procedure: (§1) Cell viability assay was performed on the human lung cancer (A549) (ATCC CCL-185), human breast cancer (MCF-7) (ATCC-HTB-22), cervical cancer (HeLa) (ATCC-CCL-2), and human embryonic kidney 293 (HEK293) (ATCC-CRL-1573) cell lines, which were purchased from Deutsche Sammlung von Mikroorganismen und Zellkulturen (DSMZ, Braunschweig, Germany). The cells were maintained in Dulbecco’s modified Eagle’s medium (DMEM), supplemented with 10% fetal bovine serum (FBS), 2 mM L-glutamine, 100 U/mL penicillin, and 100 mg/L streptomycin (Biochrom AG, Berlin, Germany) at 37 °C in a humidified atmosphere of 5% CO2.
(§2) The cytotoxic effect was determined by the MTT (3-(4,5-dimethyl-2-thiazolyl)-2,5-diphenyl-2H-tetrazolium bromide) cell viability assay. Cells were seeded at an initial concentration of 1 × 10^5 cells/mL in 96-well microplates. Cells were then treated with different concentrations (0.5, 5, 10, 25, 50, 100 and 200 µM) of the novel synthesized compounds for 48 h. After the incubation period, the formed formazan crystals were dissolved in dimethyl sulfoxide (DMSO), and the optical density (OD) of the compounds was measured at 570 nm using a spectrophotometer (BMG Labtech, Ortenberg, Germany). Cytotoxicity was expressed as an increase in the mean percentage of cytotoxicity relative to the unexposed control ± standard deviation (SD). […] Control values were set at 0% cytotoxicity. IC50 was calculated by fitting the data to a sigmoidal curve using a four-parameter logistic model and was presented as an average of three independent measurements. […] Doxorubicin was used as a positive control. Each sample was tested in triplicate.
(§3) To evaluate the selectivity of the tested compound(s) toward cancer cells over normal cells, the Selectivity Index (SI) was calculated using the following formula:SI = IC50 (normal cells)/IC50 (cancer cells)
(§4) An SI value greater than 2 was considered to indicate selective cytotoxicity, while values below 2 were interpreted as non-selective. Higher SI values reflect greater therapeutic potential due to reduced toxicity toward normal cells.

[2] = tested on: MCF-7 cells; test: MTT cell viability assay, MCF-7; settings: for IC50: Homo sapiens, MCF7, MTT, 48 h, mean ± SD, n = 3; for MCF-7 Selectivity Index (SI): SI = IC50 (HEK 293)/IC50 (MCF-7)
Procedure: as §1, §2, §3, §4

[3] = tested on: HeLa cells; test: MTT cell viability assay, HeLa; settings: for IC50: Homo sapiens, HeLa, MTT, 48 h, mean ± SD, n = 3; for HeLa Selectivity Index (SI): SI = IC50 (HEK 293)/IC50 (HeLa)
Procedure: as §1, §2, §3, §4

[4] = tested on: HEK 293 cells; test: MTT cell viability assay, non-cancerous HEK 293; settings: Homo sapiens, HEK293, 48 h, mean ± SD, n = 3
Procedure: as §1
The cytotoxic effect was determined by the MTT (3-(4,5-dimethyl-2-thiazolyl)-2,5-diphenyl-2H-tetrazolium bromide) cell viability assay. Cells were seeded at an initial concentration of 1 × 10^5 cells/mL in 96-well microplates. Cells were then treated with different concentrations (0.5, 5, 10, 25, 50, 100 and 200 µM) of the novel synthesized compounds for 48 h. After the incubation period, the formed formazan crystals were dissolved in dimethyl sulfoxide (DMSO), and the optical density (OD) of the compounds was measured at 570 nm using a spectrophotometer (BMG Labtech, Ortenberg, Germany). Cytotoxicity was expressed as an increase in the mean percentage of cytotoxicity relative to the unexposed control ± standard deviation (SD). […] Control values were set at 0% cytotoxicity. IC50 was calculated by fitting the data to a sigmoidal curve using a four-parameter logistic model and was presented as an average of three independent measurements. […] Each sample was tested in triplicate.

[5] = tested on: HeLa cells; test: LDH leakage assay, HeLa; settings: IC50 concentration of compound, 48 h, H2O2 positive control, mean ± SD, n = 3
Procedure: (§5) One hundred microliters of culture medium was transferred to a new 96-well plate. One hundred microliters of LDH reaction solution was added to each well, and absorbance was measured at 490 nm using an ELISA plate reader (BMG Labtech, Ortenberg, Germany) after 30 min.

[6] = tested on: HeLa cells; test: Total oxidative status (TOS), HeLa; settings: IC50 concentration of compound, 48 h, H2O2 250 µM positive control, mean ± SD, n = 3
Procedure: (§6) TOS were evaluated using a commercially available kit (Rel Assay Diagnostics®, Gaziantep, Turkey) according to the manufacturer’s instructions. […] The TOS assay quantifies oxidizing agents based on their ability to convert an iron (II) ion chelator complex to iron (III) ions. The results were calibrated against hydrogen peroxide (H2O2, 250 µM) as a positive control for 48 h and expressed as µmol H2O2 equivalents per liter. The analysis was performed in three independent biological replicates (n = 3).

[7] = tested on: HeLa cells; test: Intracellular GSH/GSSG ratio, HeLa; settings: IC50 concentration of compound, 48 h, H2O2 positive control, mean ± SD, n = 3
Procedure: (§7) Intracellular reduced (GSH) and oxidized (GSSG) glutathione levels were measured using the GSH/GSSG Ratio Detection Assay Kit (Cayman Chemical, Ann Arbor, MI, USA, Cat. No: 703002) according to the manufacturer’s protocol. […] After treatment, cells were washed with cold PBS and lysed with MES buffer provided in the kit.
(§8) To prevent oxidation of GSH to GSSG during processing, samples were deproteinized using the supplied metaphosphoric acid solution and neutralized accordingly. Total glutathione and GSSG levels were measured separately by adding the appropriate buffers and reagents to the wells of a 96-well plate, followed by the addition of DTNB recycling reagent and glutathione reductase. Absorbance was read at 405 nm using a microplate reader (BMG Labtech, Germany). The amount of GSH was calculated by subtracting 2 × GSSG from the total glutathione, and the GSH/GSSG ratio was used to assess intracellular redox status.

[8] = tested on: HeLa cells; test: Cell cycle analysis (PI staining, flow cytometry), HeLa; settings: IC50 concentration, 48 h, mean ± SEM, n = 3
Procedure: (§9) Cell cycle distribution was assessed by propidium iodide (PI) staining and flow cytometry. HeLa, MCF-7, and A549 cells were seeded in 6-well plates at a density of 1 × 10^5 cells per well and allowed to attach overnight. […] Following exposure, both adherent and floating cells were collected, washed twice with cold phosphate-buffered saline (PBS, pH 7.4), and fixed overnight in 70% cold ethanol at 4 °C. After fixation, the cells were centrifuged and resuspended in 500 µL of PI/RNase staining solution containing 50 µg/mL PI and 100 µg/mL RNase A (Sigma-Aldrich®, St. Louis, MO, USA), followed by incubation in the dark for 30 min at 37 °C. The stained samples were analyzed using a Muse™ Cell Analyzer (Merck, Millipore, Germany) equipped with a 488 nm excitation laser and a 617 nm emission filter. A minimum of 10,000 events per sample were acquired after exclusion of debris and doublets via FSC-A vs. FSC-H gating. The DNA content histograms were generated automatically, and cell populations were expressed as percentages of G0/G1, S, and G2/M phases using the Muse™ Cell Cycle Analysis Software 1.5.0.0. All assays were conducted in triplicate biological repeats (n = 3), and results were reported as mean ± SEM.

[9] = tested on: A549 cells; test: LDH leakage assay, A549; settings: A549, IC50 concentration of compound, 48 h; H2O2 positive control; mean ± SD, n = 3
Procedure: as §5

[10] = tested on: A549 cells; test: Total oxidative status (TOS), A549; settings: A549, IC50 concentration of compound, 48 h; H2O2 250 µM positive control; mean ± SD, n = 3
Procedure: as §6

[11] = tested on: A549 cells; test: Intracellular GSH/GSSG ratio, A549; settings: A549, IC50 concentration of compound, 48 h; H2O2 positive control; mean ± SD, n = 3
Procedure: as §7, §8

[12] = tested on: A549 cells; test: Cell cycle analysis (PI staining, flow cytometry), A549; settings: A549, IC50 concentration, 48 h, mean ± SEM, n = 3
Procedure: as §9

[13] = tested on: MCF-7 cells; test: LDH leakage assay, MCF-7; settings: MCF-7, IC50 concentration of compound, 48 h; H2O2 positive control; mean ± SD, n = 3
Procedure: as §5

[14] = tested on: MCF-7 cells; test: Total oxidative status (TOS), MCF-7; settings: MCF-7, IC50 concentration of compound, 48 h; H2O2 250 µM positive control; mean ± SD, n = 3
Procedure: as §6

[15] = tested on: MCF-7 cells; test: Intracellular GSH/GSSG ratio, MCF-7; settings: MCF-7, IC50 concentration of compound, 48 h; H2O2 positive control; mean ± SD, n = 3
Procedure: as §7, §8

[16] = tested on: MCF-7 cells; test: Cell cycle analysis (PI staining, flow cytometry), MCF-7; settings: MCF-7, IC50 concentration, 48 h, mean ± SEM, n = 3
Procedure: as §9

| SMILES | IC50 [1] | A549 Selectivity Index (SI) [1] | IC50 [2] | MCF-7 Selectivity Index (SI) [2] | IC50 [3] | HeLa Selectivity Index (SI) [3] | IC50 [4] | LDH [5] | TOS [6] | GSH/GSSG [7] | cells in G0/G1 phase [8] | cells in G2/M phase [8] | cells in S phase [8] | LDH [9] | TOS [10] | GSH/GSSG [11] | cells in G0/G1 phase [12] | cells in G2/M phase [12] | cells in S phase [12] | other results |
| --- | --- | --- | --- | --- | --- | --- | --- | --- | --- | --- | --- | --- | --- | --- | --- | --- | --- | --- | --- | --- |
| O=C(Cn1c(=O)n(CC(=O)NNC(=O)c2cc3cc(Cl)ccc3oc2=O)c2cc(Cl)c(Cl)cc21)NNC(=O)c1cc2cc(Cl)ccc2oc1=O [Compound 12b, N′,N′′′ -(2,2′-(5,6-dichloro-2-oxo-1H-benzo[d]imidazole-1,3(2H)-diyl)bis(acetyl))bis(6-chloro-2-oxo-2H-chromene-3-carbohydrazide)] | 35.2 ± 2 µM | 1.39 | 25.8 ± 1.5 µM | 1.9 | 13.6 ± 0.78 µM | 3.61 | 49.1 ± 2.83 µM | 28.5 ± 2.3 µU/mL and 28.5 ± 2.3 ^a,b µU/mL | 8.1 ± 0.6 µmol H2O2 eq/L and 8.1 ± 0.6 ^a,b µmol H2O2 eq/L | 10.1 ± 1.1 | 41.0 ± 2.1% | 35.0 ± 1.7% | 24.0 ± 1.4% | – | – | – | – | – | – | – |
| O=C(Cn1c(=O)n(CC(=O)NNC(=O)c2cc3cc(Cl)cc(Cl)c3oc2=O)c2cc(Cl)c(Cl)cc21)NNC(=O)c1cc2cc(Cl)cc(Cl)c2oc1=O [Compound 12d, N′,N′′′ -(2,2′-(5,6-dichloro-2-oxo-1H-benzo[d]imidazole-1,3(2H)-diyl)bis(acetyl))bis(6,8-Dichloro-2-oxo-2H-chromene-3-carbohydrazide)] | 15.5 ± 0.89 µM | 2.01 | 21.9 ± 1.26 µM | 1.42 | 12.8 ± 0.73 µM | 2.4 | 31.2 ± 1.8 µM | 29.7 ± 2.4 µU/mL and 29.7 ± 2.4 ^a,b µU/mL | 8.4 ± 0.6 µmol H2O2 eq/L and 8.4 ± 0.6 ^a,b µmol H2O2 eq/L | 9.7 ± 1.0 | 40.1 ± 2.0% | 36.4 ± 1.8% | – | 27.3 ± 2.2 µU/mL and 27.3 ± 2.2 ^a,b µU/mL | 7.9 ± 0.6 µmol H2O2 eq/L and 7.9 ± 0.6 ^a,b µmol H2O2 eq/L | 10.1 ± 0.9 nmol/mg Protein and 10.1 ± 0.9 ^a,b nmol/mg Protein | 62.1 ± 2.1% | 19.0 ± 1.5% | 18.9 ± 1.4% | – |
| O=c1[nH]c2cc(Cl)c(Cl)cc2[nH]1 [Compound 1, 5,6-Dichloro-1,3-dihydro-2H-benzimidazol-2-one] | 29.5 ± 1.7 µM | 2.03 | 41.3 ± 2.4 µM | 1.46 | 31.6 ± 1.82 µM | 1.9 | 60.1 ± 3.47 µM | – | – | – | – | – | – | 19.8 ± 1.7 µU/mL and 19.8 ± 1.7 ^a,b µU/mL | 6.1 ± 0.4 µmol H2O2 eq/L and 6.1 ± 0.4 ^a,b µmol H2O2 eq/L | 13.5 ± 1.3 nmol/mg Protein and 13.5 ± 1.3 ^a,b nmol/mg Protein | 57.2 ± 1.9% | 20.1 ± 1.5% | 22.7 ± 1.5% | – |
| O=c1n(Cc2nnc(S)o2)c2cc(Cl)c(Cl)cc2n1Cc1nnc(S)o1 [Compound 7, 5,6-Dichloro-1,3-bis((5-mercapto-1,3,4-oxadiazol-2-yl)methyl)-1H-benzo[d]imidazol-2(3H)-one] | 27.4 ± 1.58 µM | 1.4 | 19.1 ± 1.1 µM | 2.01 | 10.6 ± 0.61 µM | 3.63 | 38.5 ± 2.2 µM | 30.9 ± 2.7 µU/mL and 30.9 ± 2.7 ^a,b µU/mL | 8.6 ± 0.7 µmol H2O2 eq/L and 8.6 ± 0.7 ^a,b µmol H2O2 eq/L | 9.4 ± 1.0 | 38.4 ± 2.1% | 38.4 ± 1.9% | 23.2 ± 1.5% | – | – | – | – | – | – | LDH [13]: 25.3 ± 2.0 µU/mL and 25.3 ± 2.0 ^a,b µU/mL; TOS [14]: 7.6 ± 0.6 µmol H2O2 eq/L and 7.6 ± 0.6 ^a,b µmol H2O2 eq/L; GSH/GSSG [15]: 11.3 ± 1.0 nmol/mg Protein and 11.3 ± 1.0 ^a,b nmol/mg Protein; cells in G0/G1 phase [16]: 69.0 ± 2.0%; cells in G2/M phase [16]: 13.8 ± 1.2%; cells in S phase [16]: 17.2 ± 1.3% |
